From paper PMC7767166, “Imidazole and Imidazolium Antibacterial Drugs Derived from Amino Acids” (Pharmaceuticals, 2020)
Where two headings read alike, the source gives them in different places.

Tests used:
Bacillus subtilis 1904-E = assay: Bacterial cell viability assay (Resazurin), MBC; type: cell-based; settings: read-out: B. subtilis MBC
Experimental: (§1) The in vitro antibacterial activities of the synthesized compounds were examined against E. coli and B. subtilis. Bacteria were incubated in culture media with varying concentrations of the examined compound and the antibacterial properties were determined by observation of the optical density at 560 nm (bacteriostatic activity) and by the Resazurin cell viability assay (bactericidal activity). The corresponding minimal bactericidal concentration (MBC) and minimum inhibitory concentration (MIC) values that were obtained are summarized in Table 1 (please refer to Table S1 for MIC and MBC values in μM).
(§2) Two bacterial strains were used in the antibacterial assays: Escherichia coli DH5α as a Gram-negative model and Bacillus subtilis 1904-E as a Gram-positive model. Both bacterial strains were donated to our laboratory and can be provided on request by contacting the corresponding authors. Both bacterial strains were incubated at 37 °C and the pre-inoculum incubation time was of 24 h. Liquid Luria-Bertani (LB) medium was used for E. coli DH5α and nutrient broth (NB) for B. subtilis.
(§3) The bacteria cell bank suspensions were thawed and inoculated in the appropriate liquid broth for 24 h at 37 °C with mild agitation. A dilution from these culture solutions was used for the following tests, corresponding to an inoculum of 1 × 10^7 CFU/mL. Stock solutions of all the tested compounds were prepared in DMSO at a concentration of 100 mg/mL, aliquoted, and stored at −20 °C.
(§4) (B) Bacterial cell viability assay: Cell viability was analyzed using a Resazurin (7-Hydroxy-3H-phenoxazin-3-one 10-oxide) assay in a 96-well plate. Once the bacterial cultures of growth inhibition assay had been grown for a total of 24 h, 25 μL of a 0.1 mg/mL resazurin (prepared in LB or NB medium) were added to each well and incubated in the dark at 37 °C for 1 h under stirring. Resazurin has a blue color at the testing pH and turns pink when reduced by the viable bacteria to resorufin. Therefore, pink wells indicate metabolizing bacteria, while blue wells are indicative of bacteria that have lost their ability to convert resazurin to resorufin. Different controls were made in order to corroborate the MBC value obtained by the resazurin assay. The change of color was confirmed at 1, 4, and 24 h after its addition. The viability of bacteria was verified (either confirmed or rejected) by the colony plate-counting method, by seeding 10 μL from the cell culture onto tryptone soy agar plates and observing the presence or absence of bacterial growth after 24 h at 37 °C.

Escherichia coli DH5α = assay: Bacterial cell viability assay (Resazurin), MBC; type: cell-based; settings: read-out: E. coli MBC
Experimental: as §1, §2, §3, §4

[1] = Critical aggregation concentration by pyrene fluorescence (I1/I3); type: physicochemical; settings: for CAC Fluorescence, CCM:W, CAC1 / CAC Fluorescence, CCM:W, CAC2: 1/1 bacterial cell culture medium/water; for CAC Fluorescence, CCM:W, CAC1 / CAC Fluorescence, CCM:W, CAC2 / CAC Fluorescence, W: 25 °C; for CAC Fluorescence, CCM:W, CAC1: first break point; for CAC Fluorescence, CCM:W, CAC2: second break point; for CAC Fluorescence, W: in water, from the break point
Source text: To investigate the microenvironment of the critical aggregation concentration (CAC) for self-assembly in water and in the bacterial cell culture medium by fluorescence, the intensity ratio of two of the peaks (I1/I3) of the pyrene fluorescence spectrum was used. Plots of the pyrene I1/I3 ratio as a function of the total surfactant concentration show a typical sigmoidal decrease in the region where self-assembly takes place. At low concentrations, this ratio is larger as it corresponds to a polar environment for pyrene. When the surfactant concentration increases this ratio decreases rapidly, as the self-assembly favors the location of pyrene in a more hydrophobic environment, until reaching a roughly constant value because of the full incorporation of the probe into the hydrophobic region of the aggregates. Different approaches have been used to estimate CAC values from I1/I3 ratios. The most common approach is the use of the break points, either directly or by extrapolating the values from the intersection of the two straight lines defined at the constant and variable regions of the I1/I3 sigmoidal curve. As CAC represents the threshold of concentration at which self-aggregation starts, the corresponding value can be estimated from the break point at lower concentration (see Figures S9–S14). Fluorescence studies were carried out using MilliQ® water and 1/1 MilliQ® water/bacterial cell culture medium, because with the pure cell culture medium, a strong broad fluorescence emission band was observed precluding an accurate analysis. […] The corresponding CACs obtained in water and in the 1/1 mixture of water/bacterial cell culture medium by fluorescence are shown in Table 2. Pyrene was used as a fluorescence probe to determine the CAC of the compounds in water and 1/1 water/bacterial cell culture medium at 25 ± 1 °C. Fluorescence measurements were performed with a Spex Fluorolog 3-11 instrument equipped with a 450 W xenon lamp (right angle mode). Firstly, a stock pyrene solution of 1.98 × 10^−4 mol/L was prepared in ultrapure methanol. Then, solutions of the imidazole and imidazolium salt compounds (ranging from 6 to 3 × 10^−3 mmol/L) were prepared in different vials and 5 μL of pyrene solution was transferred into the vials, reaching a final pyrene concentration of 9.89 × 10^−7 mol/L in each vial. Fluorescence spectra of pyrene were recorded from 200 to 650 nm after excitation at 337 nm, and the spectra were not corrected for the Xe lamp spectral response. The slit width was set at 5 nm for both excitation and emission. The peak intensities at 373 and 385 nm were determined as I1 and I3, respectively. The ratios of the peak intensities at 373 and 385 nm (I1/I3) for the emission spectra were recorded as a function of the logarithm of concentration. The CAC values were taken from the break point. Samples were excited with a 337 nm NanoLED.

[2] = 24 h, Resazurin after 24 h growth, nutrient broth, minimum of three experiments
[3] = mode of at least three experiments
[4] = Resazurin after 24 h growth, LB medium, minimum of three experiments
[5] = bacterial cell culture medium/water

Structure (SMILES) | MBC (Bacillus subtilis 1904-E; [2]) [µg/mL] | MBC (Bacillus subtilis 1904-E; [3]) [µM] | MBC (Escherichia coli DH5α; [4]) [µg/mL] | MBC (Escherichia coli DH5α; [3]) [µM] | CAC Fluorescence, CCM:W, CAC1 [1] [mM] | CAC Fluorescence, CCM:W, CAC2 [1] [mM] | CAC Fluorescence, W [1] [mM] | first break point (I1/I3 vs concentration) [1, 5] [µM] | second break point (I1/I3 vs concentration) [1, 5]
CCCCNC(=O)[C@H](C(C)C)n1ccnc1 [Compound 2a] | > 2000 | > 9000 | > 2000 | > 9000 | 2.89 | 5.4 | 4.31 |  | 
CCCCCCCCCCCCNC(=O)[C@@H](Cc1ccccc1)n1cc[n+](Cc2cccc(C[n+]3ccn([C@@H](Cc4ccccc4)C(=O)NCCCCCCCCCCCC)c3)c2)c1 [Compound 3c] | 64 | 62 | 2000 | 1990 |  |  |  |  | 
CCCCNC(=O)[C@H](C(C)C)n1cc[n+](Cc2ccccc2)c1 [Compound 2b] | > 1000 | 2590 | > 2000 | > 5000 | 3.46 | 8.4 | 4.57 |  | 
CCCCCCCCCCCCNC(=O)[C@H](C(C)C)n1cc[n+](Cc2ccccc2)c1 [Compound 1b] | ≤ 16 | 18 | 256 | 581 | 0.006 | 0.048 | 0.084 | 6 | ca. 48 μM
CCCCCCCCCCCCNC(=O)[C@H](C(C)C)n1ccnc1 [Compound 1a] | ≤ 16 | 48 | > 2000 | > 6000 | 0.004 | 0.045 | 0.085 |  | 
CCCCCCCCCCCCNC(=O)[C@H](Cc1ccccc1)n1ccnc1 [Compound 3a] | ≤ 16 | 42 | > 2000 | > 5000 | 0.018 | 0.325 | 0.033 |  | 
CCCCNC(=O)[C@H](C(C)C)n1cc[n+](Cc2cccc(C[n+]3ccn([C@@H](C(=O)NCCCC)C(C)C)c3)c2)c1 [Compound 2c] | 256 | 361 | > 2000 | > 2900 | 2.25 | 3.54 | 2.34 |  | 
CCCCCCCCCCCCNC(=O)[C@H](C(C)C)n1cc[n+](Cc2cccc(C[n+]3ccn([C@@H](C(=O)NCCCCCCCCCCCC)C(C)C)c3)c2)c1 [Compound 1c] | 32 | 34 | 256 | 269 | 0.016 | 0.21 | 0.010 |  | 
CCCCCCCCCCCCNC(=O)[C@H](Cc1ccccc1)n1cc[n+](Cc2ccccc2)c1 [Compound 3b] |  | 7 | 128 | 229 | 0.063 | 0.33 | 0.098 |  | 
